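Abbreviation: GI50, concentration required for 50% inhibition of growth. At the TGI there is no net growth.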
How the values were obtained:
Experiment in all cases: inhibition of tumour cell growth, NCI panel, 384-well format
BT-549 breast = tested on: BT-549 breast
COLO 205 colon = tested on: COLO 205 colon
HCT-15 colon = tested on: HCT-15 colon
HOP-62 NSCLC = tested on: HOP-62 NSCLC
IGROV1 ovarian = tested on: IGROV1 ovarian
MALME-3M melanoma = tested on: MALME-3M melanoma
NCI-H460 NSCLC = tested on: NCI-H460 NSCLC
OVCAR-4 ovarian = tested on: OVCAR-4 ovarian
RXF 393 renal = tested on: RXF 393 renal
SK-MEL-28 melanoma = tested on: SK-MEL-28 melanoma
SNB-19 CNS = tested on: SNB-19 CNS
SW-620 colon = tested on: SW-620 colon
UACC-257 melanoma = tested on: UACC-257 melanoma

Compound C[C@@H](O)[C@H](NC(=O)N[C@@H](CC(N)=O)c1nc([C@@H](N)CO)no1)C(=O)O has a GI50 (BT-549 breast) greater than 100 µM, a TGI (BT-549 breast) greater than 100 µM and a GI50 (COLO 205 colon) greater than 100 µM. For the same compound, the TGI (COLO 205 colon) was greater than 100 µM, the GI50 (HCT-15 colon) was greater than 100 µM and the TGI (HCT-15 colon) was greater than 100 µM. The GI50 (HOP-62 NSCLC) was greater than 100 µM, the TGI (HOP-62 NSCLC) was greater than 100 µM and the GI50 (IGROV1 ovarian) was greater than 100 µM. It also gave a TGI (IGROV1 ovarian) greater than 100 µM, a GI50 (MALME-3M melanoma) greater than 100 µM and a TGI (MALME-3M melanoma) greater than 100 µM. The GI50 (NCI-H460 NSCLC) was greater than 100 µM, the TGI (NCI-H460 NSCLC) was greater than 100 µM and the GI50 (OVCAR-4 ovarian) was greater than 100 µM. It also gave a TGI (OVCAR-4 ovarian) greater than 100 µM, a GI50 (RXF 393 renal) greater than 100 µM and a TGI (RXF 393 renal) greater than 100 µM. For the same compound, the GI50 (SK-MEL-28 melanoma) was greater than 100 µM, the TGI (SK-MEL-28 melanoma) was greater than 100 µM and the GI50 (SNB-19 CNS) was greater than 100 µM. It also gave a TGI (SNB-19 CNS) greater than 100 µM, a GI50 (SW-620 colon) greater than 100 µM and a TGI (SW-620 colon) greater than 100 µM. For the same compound, the GI50 (UACC-257 melanoma) was greater than 100 µM and the TGI (UACC-257 melanoma) was greater than 100 µM.

— PubChem BioAssay (NCI)
